Experiments:
Experiment in all cases: Tyrosine kinase inhibition assay
Assay type in all cases: biochemical
Conditions in all cases: single concentration 1.0 μM, read-out: percent inhibition
AKT1 (PKB alpha) = AKT1 (PKB alpha) (Homo sapiens, UniProt P31749)
Outline: (§1)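 Single-point screen, 1.0 μM compound, 1% DMSO final; ATP at apparent Km. Buffer: 50 mM HEPES pH 7.5, 0.01% BRIJ-35, 10 mM MgCl2, 1 mM EGTA. Z′-LYTE readout, % inhibition; hit = >80%.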

EPHA6 = molecular target: T1, EPHA6 (Homo sapiens, UniProt Q9UF33)
T1 sequence (Q9UF33 23-1036): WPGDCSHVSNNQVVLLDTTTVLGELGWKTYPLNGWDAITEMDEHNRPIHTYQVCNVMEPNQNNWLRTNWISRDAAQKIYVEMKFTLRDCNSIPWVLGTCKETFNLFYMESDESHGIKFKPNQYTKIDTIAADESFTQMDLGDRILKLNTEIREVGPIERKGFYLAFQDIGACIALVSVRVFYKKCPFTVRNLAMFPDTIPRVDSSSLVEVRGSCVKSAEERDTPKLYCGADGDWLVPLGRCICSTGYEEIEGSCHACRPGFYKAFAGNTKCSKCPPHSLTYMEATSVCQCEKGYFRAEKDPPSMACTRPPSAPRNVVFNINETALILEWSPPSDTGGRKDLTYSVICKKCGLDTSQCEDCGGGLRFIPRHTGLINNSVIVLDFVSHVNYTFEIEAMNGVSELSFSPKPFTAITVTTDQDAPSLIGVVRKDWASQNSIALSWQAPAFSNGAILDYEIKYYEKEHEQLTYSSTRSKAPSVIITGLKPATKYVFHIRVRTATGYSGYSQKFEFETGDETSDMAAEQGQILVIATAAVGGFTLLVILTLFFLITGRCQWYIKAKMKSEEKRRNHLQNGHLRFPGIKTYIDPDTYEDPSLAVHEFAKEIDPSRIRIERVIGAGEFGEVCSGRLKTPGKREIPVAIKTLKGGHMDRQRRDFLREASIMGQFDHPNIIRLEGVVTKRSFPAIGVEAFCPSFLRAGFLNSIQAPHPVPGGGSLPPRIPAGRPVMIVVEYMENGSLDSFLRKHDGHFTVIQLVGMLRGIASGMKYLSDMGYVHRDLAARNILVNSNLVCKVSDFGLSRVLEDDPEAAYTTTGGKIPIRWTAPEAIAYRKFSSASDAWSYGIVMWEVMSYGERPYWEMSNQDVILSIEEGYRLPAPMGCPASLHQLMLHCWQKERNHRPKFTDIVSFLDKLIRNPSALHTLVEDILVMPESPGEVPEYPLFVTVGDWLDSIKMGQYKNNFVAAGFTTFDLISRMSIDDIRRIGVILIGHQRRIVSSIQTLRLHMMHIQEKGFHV
Outline: as §1

EPHB1 = molecular target: T2, EPHB1 (Homo sapiens, UniProt P54762)
T2 sequence (P54762 18-984): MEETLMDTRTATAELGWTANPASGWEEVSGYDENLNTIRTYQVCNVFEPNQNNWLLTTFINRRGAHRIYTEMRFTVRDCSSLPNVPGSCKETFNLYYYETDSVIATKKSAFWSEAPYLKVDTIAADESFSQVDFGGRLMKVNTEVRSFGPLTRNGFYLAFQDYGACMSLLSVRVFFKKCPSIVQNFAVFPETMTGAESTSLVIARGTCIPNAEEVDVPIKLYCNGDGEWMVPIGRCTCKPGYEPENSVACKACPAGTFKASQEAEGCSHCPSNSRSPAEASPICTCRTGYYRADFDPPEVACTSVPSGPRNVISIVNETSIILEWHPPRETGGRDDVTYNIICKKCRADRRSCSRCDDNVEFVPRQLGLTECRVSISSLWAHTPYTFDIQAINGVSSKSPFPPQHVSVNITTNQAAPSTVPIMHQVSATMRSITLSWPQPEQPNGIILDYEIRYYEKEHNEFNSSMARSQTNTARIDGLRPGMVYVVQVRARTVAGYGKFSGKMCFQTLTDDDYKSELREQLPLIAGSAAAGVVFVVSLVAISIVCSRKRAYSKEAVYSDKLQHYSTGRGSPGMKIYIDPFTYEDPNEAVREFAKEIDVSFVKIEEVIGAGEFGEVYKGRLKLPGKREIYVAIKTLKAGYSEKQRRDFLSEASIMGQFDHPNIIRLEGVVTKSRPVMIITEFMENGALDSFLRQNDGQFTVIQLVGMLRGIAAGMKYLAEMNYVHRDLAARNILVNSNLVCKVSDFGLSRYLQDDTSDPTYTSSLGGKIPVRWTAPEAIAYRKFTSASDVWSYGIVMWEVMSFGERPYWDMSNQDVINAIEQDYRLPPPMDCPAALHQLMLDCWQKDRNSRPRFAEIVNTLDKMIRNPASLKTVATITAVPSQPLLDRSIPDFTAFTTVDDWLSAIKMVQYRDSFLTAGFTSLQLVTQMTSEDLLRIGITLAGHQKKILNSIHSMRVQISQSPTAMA
Outline: as §1

FES (FPS) = FES (FPS) (Homo sapiens, UniProt P07332)
Outline: as §1

PIK3C3 (hVPS34) = PIK3C3 (hVPS34) (Homo sapiens, UniProt Q8NEB9)
Outline: as §1

[1] = molecular target: PIK3CD/PIK3R1 (p110 delta/p85 alpha) (Homo sapiens, UniProt O00329)
Outline: as §1

Sequence of AKT1 (PKB alpha) (P31749 whole entry): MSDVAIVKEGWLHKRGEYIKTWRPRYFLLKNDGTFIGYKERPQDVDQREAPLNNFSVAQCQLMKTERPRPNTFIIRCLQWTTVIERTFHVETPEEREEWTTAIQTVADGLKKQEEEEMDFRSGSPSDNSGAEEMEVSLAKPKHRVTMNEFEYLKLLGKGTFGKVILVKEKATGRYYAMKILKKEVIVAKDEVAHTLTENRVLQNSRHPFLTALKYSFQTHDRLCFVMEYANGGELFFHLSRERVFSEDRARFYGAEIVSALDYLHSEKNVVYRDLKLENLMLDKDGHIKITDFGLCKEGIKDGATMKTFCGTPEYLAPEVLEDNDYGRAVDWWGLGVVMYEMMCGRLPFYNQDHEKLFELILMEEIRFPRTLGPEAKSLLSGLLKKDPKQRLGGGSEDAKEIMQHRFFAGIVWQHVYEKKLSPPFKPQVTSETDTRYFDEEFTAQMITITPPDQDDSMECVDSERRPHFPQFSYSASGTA
Sequence of PIK3C3 (hVPS34) (Q8NEB9 whole entry): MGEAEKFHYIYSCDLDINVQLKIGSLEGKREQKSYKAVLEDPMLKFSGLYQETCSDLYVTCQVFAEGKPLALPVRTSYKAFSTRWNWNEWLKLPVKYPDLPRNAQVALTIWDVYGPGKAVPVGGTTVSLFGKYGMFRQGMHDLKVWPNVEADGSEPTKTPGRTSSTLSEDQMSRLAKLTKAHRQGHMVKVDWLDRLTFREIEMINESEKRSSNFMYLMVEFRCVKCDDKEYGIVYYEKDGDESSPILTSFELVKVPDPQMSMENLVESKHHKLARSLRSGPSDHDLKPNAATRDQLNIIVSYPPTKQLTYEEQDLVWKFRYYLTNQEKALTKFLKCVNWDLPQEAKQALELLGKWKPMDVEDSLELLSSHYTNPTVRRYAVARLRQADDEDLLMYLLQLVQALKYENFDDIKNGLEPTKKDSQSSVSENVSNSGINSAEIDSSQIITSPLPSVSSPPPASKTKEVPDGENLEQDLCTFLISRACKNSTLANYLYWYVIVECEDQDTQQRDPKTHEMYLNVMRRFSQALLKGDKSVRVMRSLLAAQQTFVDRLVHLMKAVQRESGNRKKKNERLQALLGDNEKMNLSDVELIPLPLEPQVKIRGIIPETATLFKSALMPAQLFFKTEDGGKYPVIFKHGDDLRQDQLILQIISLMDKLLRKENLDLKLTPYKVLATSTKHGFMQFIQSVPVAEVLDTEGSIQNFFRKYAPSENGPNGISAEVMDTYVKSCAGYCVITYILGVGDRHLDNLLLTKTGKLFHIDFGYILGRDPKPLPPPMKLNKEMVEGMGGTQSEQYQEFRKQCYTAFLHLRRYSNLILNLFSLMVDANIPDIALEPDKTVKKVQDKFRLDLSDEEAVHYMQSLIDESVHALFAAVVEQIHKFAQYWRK
Sequence of PIK3CD/PIK3R1 (p110 delta/p85 alpha) (O00329 whole entry): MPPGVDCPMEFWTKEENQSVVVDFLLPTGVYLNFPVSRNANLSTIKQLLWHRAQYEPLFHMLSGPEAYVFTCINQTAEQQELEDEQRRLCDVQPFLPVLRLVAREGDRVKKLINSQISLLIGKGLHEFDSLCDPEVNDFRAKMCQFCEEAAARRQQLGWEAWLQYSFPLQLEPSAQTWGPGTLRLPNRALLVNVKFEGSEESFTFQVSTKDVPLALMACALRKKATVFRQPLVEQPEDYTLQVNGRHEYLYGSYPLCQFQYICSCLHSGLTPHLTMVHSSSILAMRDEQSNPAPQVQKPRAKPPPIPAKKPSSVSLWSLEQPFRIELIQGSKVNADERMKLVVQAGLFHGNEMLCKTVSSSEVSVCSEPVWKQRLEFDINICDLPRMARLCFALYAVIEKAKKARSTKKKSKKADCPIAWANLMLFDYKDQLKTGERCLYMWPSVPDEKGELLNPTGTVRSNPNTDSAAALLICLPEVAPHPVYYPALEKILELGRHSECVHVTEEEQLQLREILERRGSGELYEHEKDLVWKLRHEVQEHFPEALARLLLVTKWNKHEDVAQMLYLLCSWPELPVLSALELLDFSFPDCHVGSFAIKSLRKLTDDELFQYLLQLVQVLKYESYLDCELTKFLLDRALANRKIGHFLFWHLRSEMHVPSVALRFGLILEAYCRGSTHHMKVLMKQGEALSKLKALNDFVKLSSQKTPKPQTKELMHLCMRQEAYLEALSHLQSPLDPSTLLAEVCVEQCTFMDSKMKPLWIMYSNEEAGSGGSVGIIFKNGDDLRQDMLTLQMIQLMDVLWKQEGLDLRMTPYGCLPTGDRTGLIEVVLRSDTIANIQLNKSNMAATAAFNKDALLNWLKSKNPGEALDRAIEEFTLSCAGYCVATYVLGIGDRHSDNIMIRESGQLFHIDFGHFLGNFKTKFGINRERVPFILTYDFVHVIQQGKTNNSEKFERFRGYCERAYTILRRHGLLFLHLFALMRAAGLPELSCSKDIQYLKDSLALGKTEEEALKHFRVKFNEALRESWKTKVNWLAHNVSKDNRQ
Sequence of PIK3CD/PIK3R1 (p110 delta/p85 alpha) (P27986 whole entry partner): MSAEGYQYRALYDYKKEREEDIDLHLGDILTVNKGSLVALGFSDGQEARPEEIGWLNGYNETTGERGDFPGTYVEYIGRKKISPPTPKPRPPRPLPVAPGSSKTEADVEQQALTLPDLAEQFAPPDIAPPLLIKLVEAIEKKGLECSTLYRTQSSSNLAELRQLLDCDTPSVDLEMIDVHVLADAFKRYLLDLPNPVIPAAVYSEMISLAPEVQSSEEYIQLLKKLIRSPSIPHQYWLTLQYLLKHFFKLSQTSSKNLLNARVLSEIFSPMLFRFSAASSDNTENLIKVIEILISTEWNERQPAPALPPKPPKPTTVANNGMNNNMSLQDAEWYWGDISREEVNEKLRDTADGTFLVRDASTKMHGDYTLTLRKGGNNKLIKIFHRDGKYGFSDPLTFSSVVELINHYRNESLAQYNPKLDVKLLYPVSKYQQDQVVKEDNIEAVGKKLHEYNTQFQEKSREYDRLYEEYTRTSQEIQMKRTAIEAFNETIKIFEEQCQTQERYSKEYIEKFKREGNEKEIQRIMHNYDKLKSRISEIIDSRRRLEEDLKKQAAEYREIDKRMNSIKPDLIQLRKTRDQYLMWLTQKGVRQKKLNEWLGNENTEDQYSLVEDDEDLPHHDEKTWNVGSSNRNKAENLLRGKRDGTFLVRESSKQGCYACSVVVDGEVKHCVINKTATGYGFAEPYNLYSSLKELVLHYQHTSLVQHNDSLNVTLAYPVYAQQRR
Sequence of FES (FPS) (P07332 whole entry): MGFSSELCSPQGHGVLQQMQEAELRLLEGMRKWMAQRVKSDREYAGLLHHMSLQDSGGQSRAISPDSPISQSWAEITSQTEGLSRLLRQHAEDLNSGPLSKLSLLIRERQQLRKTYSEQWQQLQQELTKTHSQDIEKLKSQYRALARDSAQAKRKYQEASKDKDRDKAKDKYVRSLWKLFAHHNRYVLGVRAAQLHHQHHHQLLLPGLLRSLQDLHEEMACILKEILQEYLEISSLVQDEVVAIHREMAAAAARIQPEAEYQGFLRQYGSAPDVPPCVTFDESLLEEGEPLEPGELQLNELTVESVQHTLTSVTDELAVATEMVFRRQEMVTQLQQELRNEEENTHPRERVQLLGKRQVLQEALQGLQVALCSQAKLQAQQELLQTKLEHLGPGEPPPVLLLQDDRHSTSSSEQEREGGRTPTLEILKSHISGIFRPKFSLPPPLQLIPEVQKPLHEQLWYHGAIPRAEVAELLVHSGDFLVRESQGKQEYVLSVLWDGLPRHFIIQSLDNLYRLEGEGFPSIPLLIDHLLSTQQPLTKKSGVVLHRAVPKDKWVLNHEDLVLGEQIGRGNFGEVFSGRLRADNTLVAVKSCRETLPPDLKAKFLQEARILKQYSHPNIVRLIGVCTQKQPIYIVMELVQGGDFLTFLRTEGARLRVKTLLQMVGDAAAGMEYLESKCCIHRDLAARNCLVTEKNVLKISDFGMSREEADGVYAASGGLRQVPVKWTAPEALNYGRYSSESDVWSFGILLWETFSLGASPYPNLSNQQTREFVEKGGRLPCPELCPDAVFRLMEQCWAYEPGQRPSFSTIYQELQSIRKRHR

SMILES | inhibition at 1 µM (AKT1 (PKB alpha)) [%] | inhibition at 1 µM (EPHA6) [%] | inhibition at 1 µM (EPHB1) [%] | inhibition at 1 µM (FES (FPS)) [%] | inhibition at 1 µM (PIK3C3 (hVPS34)) [%] | inhibition at 1 µM [1] [%]
COc1cc2nccc(Oc3ccc(NC(=O)C4(C(=O)Nc5ccc(F)cc5)CC4)cc3)c2cc1OC [Cabozantinib, reference compound] | 3 | 103 | 99 | 30 | 0 | -1
COc1cc2nccc(Oc3ccc(NC(=O)C4(NC(=O)c5ccc(F)cc5)CC4)cc3F)c2cc1OC [Cbo-02, N-(1-((4-((6,7-diMethoxyquinolin-4-yl)oxy)-3-fluorophenyl)carbamoyl)cyclopropyl)-4-fluorobenzamide] | 2 | 75 | 37 | 38 | 1 | -6
COc1cc2nccc(Oc3ccc(NC(=O)C4(NC(=O)c5ccc(F)cc5)CC4)cc3F)c2cc1Oc1ccc(N)cc1F [Cbo-10] | 0 | 94 | 74 | 80 | -5 | 12
COc1cc2nccc(Oc3ccc(NC(=O)C4(NC(=O)c5ccc(F)cc5)CC4)cc3F)c2cc1Oc1c(F)cc(N)cc1F [Cbo-14] | 2 | 96 | 75 | 78 | 6 | 16
COc1cc2nccc(Oc3ccc(NC(=O)C4(C(=O)Nc5ccc(F)cc5)CC4)cc3F)c2cc1Oc1ccc(N)cc1F [Cbo-23] | 4 | 100 | 99 | 58 | -4 | 2
